Among the data in patent publication US20220380338A1, “CYCLOALKYL 3-OXOPIPERAZINE CARBOXAMIDES AND CYCLOHETEROALKYL 3-OXOPIPERAZINE CARBOXAMIDES AS NAV1.8 INHIBITORS” (Merck Sharp & Dohme LLC, priority 2021, published 2022) are IC50 values, retold here.

For this assay, the target named is T1, human NaV1.8 (Homo sapiens, UniProt Q9Y5Y9).
T1 construct: expressed in transfected cells
T1 sequence (Q9Y5Y9 whole entry): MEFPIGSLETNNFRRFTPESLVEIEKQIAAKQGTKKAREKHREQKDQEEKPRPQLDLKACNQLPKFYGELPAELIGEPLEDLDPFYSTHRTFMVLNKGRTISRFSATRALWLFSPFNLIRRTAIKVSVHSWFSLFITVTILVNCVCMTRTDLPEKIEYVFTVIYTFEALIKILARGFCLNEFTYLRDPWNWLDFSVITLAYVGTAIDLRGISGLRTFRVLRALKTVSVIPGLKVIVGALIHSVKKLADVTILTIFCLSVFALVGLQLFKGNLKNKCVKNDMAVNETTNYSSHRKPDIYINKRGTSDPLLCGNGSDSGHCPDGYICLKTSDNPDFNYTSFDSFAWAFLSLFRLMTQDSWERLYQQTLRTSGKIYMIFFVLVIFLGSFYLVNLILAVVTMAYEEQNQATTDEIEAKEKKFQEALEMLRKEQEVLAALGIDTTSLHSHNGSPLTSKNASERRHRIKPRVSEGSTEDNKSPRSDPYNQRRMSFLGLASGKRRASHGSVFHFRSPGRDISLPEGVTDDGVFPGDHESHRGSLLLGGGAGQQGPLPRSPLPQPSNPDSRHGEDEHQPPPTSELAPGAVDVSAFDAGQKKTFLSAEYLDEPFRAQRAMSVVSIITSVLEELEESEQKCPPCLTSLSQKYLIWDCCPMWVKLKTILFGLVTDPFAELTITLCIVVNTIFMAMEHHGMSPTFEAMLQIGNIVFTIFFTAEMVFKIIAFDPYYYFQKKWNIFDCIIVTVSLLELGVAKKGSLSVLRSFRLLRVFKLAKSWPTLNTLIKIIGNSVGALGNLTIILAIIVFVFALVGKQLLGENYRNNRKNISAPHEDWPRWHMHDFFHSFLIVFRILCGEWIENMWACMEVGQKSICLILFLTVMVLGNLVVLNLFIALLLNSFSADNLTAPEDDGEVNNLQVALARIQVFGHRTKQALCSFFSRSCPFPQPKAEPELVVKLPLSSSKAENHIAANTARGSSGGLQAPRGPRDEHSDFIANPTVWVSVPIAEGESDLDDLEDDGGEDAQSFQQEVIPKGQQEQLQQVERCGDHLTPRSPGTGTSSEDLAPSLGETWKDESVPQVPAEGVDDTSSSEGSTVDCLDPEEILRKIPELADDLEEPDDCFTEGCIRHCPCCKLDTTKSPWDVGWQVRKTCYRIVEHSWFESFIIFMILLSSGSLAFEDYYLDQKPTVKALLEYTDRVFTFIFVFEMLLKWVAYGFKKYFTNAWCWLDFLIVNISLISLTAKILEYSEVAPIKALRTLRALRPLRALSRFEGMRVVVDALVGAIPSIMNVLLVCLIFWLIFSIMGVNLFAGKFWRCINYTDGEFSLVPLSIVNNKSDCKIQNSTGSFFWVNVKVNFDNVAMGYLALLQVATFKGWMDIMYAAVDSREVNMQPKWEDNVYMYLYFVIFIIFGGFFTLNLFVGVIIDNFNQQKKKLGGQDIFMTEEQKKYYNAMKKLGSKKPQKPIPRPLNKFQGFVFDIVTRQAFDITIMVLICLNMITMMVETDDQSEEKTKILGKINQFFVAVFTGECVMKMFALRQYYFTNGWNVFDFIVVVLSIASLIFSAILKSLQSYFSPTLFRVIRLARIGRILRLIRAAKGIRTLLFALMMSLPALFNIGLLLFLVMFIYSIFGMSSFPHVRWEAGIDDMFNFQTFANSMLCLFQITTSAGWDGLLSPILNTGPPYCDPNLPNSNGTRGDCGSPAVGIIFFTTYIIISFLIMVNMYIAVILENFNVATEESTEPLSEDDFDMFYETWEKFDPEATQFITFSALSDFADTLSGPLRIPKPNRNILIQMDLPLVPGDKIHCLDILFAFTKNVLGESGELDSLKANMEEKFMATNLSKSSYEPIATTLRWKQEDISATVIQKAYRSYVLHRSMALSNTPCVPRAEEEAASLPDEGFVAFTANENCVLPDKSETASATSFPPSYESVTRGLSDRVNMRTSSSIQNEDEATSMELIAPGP
Description: Nav1.8 Qube® Assay (automated 384-well patch-clamp, inhibition of sodium current). It is filed as cell-based. The following applies: human NaV1.8 channels stably expressed in HEK 293 cells, room temperature. On the procedure: Compounds were tested on human NaV1.8 and NaV1.5 channels stably expressed in human embryo kidney (HEK) 293 cells. Sodium current measurements on Qube® were conducted as follows: automated 384-well patch-clamp assays on the Qube® platform (Sophion Biosciences) were used to measure the inhibition of sodium flow through human NaV1.8 and NaV1.5 channels. Whole-cell voltage-clamp recordings were performed in QChips® (Sophion Biosciences) at room temperature. NaV1.8 current measurements on Qube® were obtained as follows: NaV1.8 currents were elicited with a 10 second 1 Hertz (Hz) pulse train from a holding potential of −90 millivolts (mV), delivered to the cells once per minute in the control condition (DMSO only) and after compound addition. The 1 hertz pulse train stimulation consisted of ten test pulses to 10 millivolt (mV) for 20 milliseconds (ms), each of which was followed by a 980 millisecond repolarization to −67 millivolts. At the end of the 10 second pulse train stimulation, a 5 second hyperpolarization step to −100 millivolt (mV) was used to recover NaV1.8 from fast inactivation. The peak currents elicited by the 1st and 10th test pulses were used to determine IC50 values for resting inhibition and inactivated state inhibition. NaV1.5 current measurements on Qube® were obtained as follows: NaV1.5 currents were elicited with a 20 second 3 Hertz pulse train in the control condition (DMSO only) and after compound addition. The pulse train consisted of sixty 20 millisecond test pulses to 0 millivolt from a holding potential of −80 millivolt (mV). The average peak currents elicited by the last 3 test pulses were used to determine IC50 values for NaV1.5 inhibition.
The following buffers were used for the Qube® recordings: External buffer for NaV1.8 Qube® recording: 150 NaCl, 2 CaCl2, 5 KCl, 1 Mg Cl2, 10 HEPES, 12 Dextrose; External buffer for Qube® NaV1.5 recording: 120 N-Methyl-D-Glucamine, 40 NaCl, 1 KCl, 2.7 CaCl2, 5 HEPES, 0.5 MgCl2; and Internal buffer for Qube® recording: 120 CsF, 30 CsCl, 10 EGTA, 5 HEPES, 5 NaF, 2 MgCl2.
For all Qube® experiments offline analysis was used to determine percent inhibition as a function of drug concentration. IC50 values were determined by fitting to the Hill equation.
Broadly, the IC50 is the point on the concentration scale where inhibition reaches its midpoint. Compound `C[C@@H]1C(=O)NCCN1C(=O)NC(c1ccc(F)c(Cl)c1F)C1CC2(C1)CC2(F)F` (single isomer, unassigned) [Example 22D, (2R)-N-((So or R)-(3-chloro-2,4-difluoro-phenyl)(cis or trans-1,1-difluoro-spiro[2.3]-hexan-5-yl)methyl)-2-methyl-3-oxopiperazine-1-carboxamide] gave a half-maximal inhibitory concentration (IC50) of 85.2 nM. The figure for `C[C@@H]1C(=O)NCCN1C(=O)NC(c1ccc(Cl)c(C(F)(F)F)n1)C1CC(C(F)(F)F)C1` (single isomer, unassigned) [Example 47D, (2R)—N—((S or R)-(5-chloro-6-(trifluoromethyl)pyridin-2-yl)(cis-3-(trifluoromethyl)-cyclobutyl)methyl)-2-methyl-3-oxopiperazine-1-carboxamide] is 36.6 nM. `O=C1CN(C(=O)NC(c2ccc(F)c(Cl)c2)C2CCN(CC(F)(F)F)CC2)CCN1` (single isomer, unassigned) [Example 17B, N-((S or R)-(3-chloro-4-fluorophenyl)(1-(2,2,2-trifluoroethyl)piperidin-4-yl)methyl)-3-oxopiperazine-1-carboxamide]: 136 nM corresponded to half-maximal inhibition (IC50). In turn, `CC(N1CCC(C(NC(=O)N2CCNC(=O)[C@H]2C)c2ccc(F)c(Cl)c2)CC1)C(F)(F)F` (single isomer, unassigned) [Example 18D] returned an IC50 of 83.5 nM. For `[2H]C1([2H])NC(=O)C(C)N(C(=O)N[C@H](c2ccc(F)c(Cl)c2F)[C@H]2C[C@H](C(F)(F)F)C2)C1([2H])[2H]` (single isomer, unassigned) [Example 59A, (R or S)—N—((S)-(3-chloro-2,4-difluorophenyl)((trans)-3-(trifluoromethyl)cyclobutyl)methyl)-2-methyl-3-oxopiperazine-5,5,6,6-d4-1-carboxamide], the IC50 was 2.6 nM.

`C[C@@H]1C(=O)NCCN1C(=O)NC(c1ccc(F)c(Cl)c1F)C1CC2(CC2)C1` (single isomer, unassigned) [Example 28A, (2R)—N—((R or S)-(3-chloro-2,4-difluorophenyl)(spiro[2.3]hexan-5-yl)methyl)-2-methyl-3-oxopiperazine-1-carboxamide] displayed a 50% inhibitory concentration (IC50) of 2.65 nM. This IC50 and that of the compound before are within 1.5-fold of each other. The figure for `C[C@@H]1C(=O)NCCN1C(=O)NC(c1cc(F)c(F)c(F)c1)[C@H]1CC[C@H](C(F)(F)F)CC1` (single isomer, unassigned) [Example 6A, (R)-2-methyl-3-oxo-N-((R or S)-(trans-4-(trifluoromethyl)cyclo-hexyl)(3,4,5-tri-fluorophenyl)methyl) piperazine-1-carboxamide] is 232 nM; for `C[C@@H]1C(=O)NCCN1C(=O)NC(c1ccc(OC(F)(F)F)c(F)c1)[C@H]1C[C@H](C(F)(F)F)C1` (single isomer, unassigned) [Example 49A] it is 4.46 nM. In the case of `O=C1CN(C(=O)NC(c2ccc(F)c(Cl)c2)C23CCC(C(F)(F)F)(CC2)CC3)CCN1` (single isomer, unassigned) [Example 12A, N-((R or S)-(3-chloro-4-fluoro-phenyl)(4-(trifluoro-methyl)bicyclo[2.2.2]octan-1-yl)methyl)-3-oxopiperazine-1-carboxamide], the IC50 came to 343 nM.

`C[C@@H]1C(=O)NCCN1C(=O)NC(c1ccc(F)c(Cl)c1F)C1COc2ccccc2C1` (single isomer, unassigned) [Example 62A, (R)—N—((R or S)-(3-chloro-2,4-difluorophenyl)((R or S)-chroman-3-yl)methyl)-2-methyl-3-oxopiperazine-1-carboxamide] came in with a concentration for half-maximal inhibition (IC50) of 3.2 nM. The value for `O=C1CN(C(=O)NC(c2ccc(F)c(Cl)c2)C23CC(C(F)(F)F)(C2)C3)CCN1` (single isomer, unassigned) [Example 34B, N-((S or R)-(3-chloro-4-fluorophenyl)(3-(trifluoromethyl)bicyclo [1.1.1]pentan-1-yl)methyl)-3-oxopiperazine-1-carboxamide] was 47.1 nM.

The compound `C[C@@H]1C(=O)NCCN1C(=O)NC(c1ccc(F)c(Cl)c1)C1CC(C(F)(F)F)C1` (single isomer, unassigned) [Example 43B, (2R)-N-((R or S)-(3-chloro-4-fluorophenyl)-(cis-3-(trifluoromethyl)-cyclobutyl)methyl)-2-methyl-3-oxopiperazine-1-carboxamide] gave an IC50 of 26.4 nM. The value for `C[C@@H]1C(=O)NCCN1C(=O)NC(c1ccc(F)c(C(F)(F)F)c1)C1CCC(C(F)(F)F)OC1` (single isomer, unassigned) [Example 60A, (2R)—N-((1(R or S))-(4-fluoro-3-(trifluoromethyl)phenyl)-trans-(6-(trifluoromethyl)tetrahydro-2H-pyran-3-yl)methyl)-2-methyl-3-oxopiperazine-1-carboxamide] was 10.1 nM; that for `COC1CC(C(NC(=O)N2CCNC(=O)[C@H]2C)c2ccc(F)c(Cl)c2F)C1` (single isomer, unassigned) [Example 40C, (2R)-N-((S or R)-(3-chloro-2,4-difluoro-phenyl)(cis-3-methoxycyclobutyl)-methyl)-2-methyl-3-oxopiperazine-1-carboxamide] was 362 nM; that for `O=C1CN(C(=O)NC(c2ccc(F)c(Cl)c2)C23CC(C(F)(F)F)(C2)C3)CCN1` (single isomer, unassigned) [Example 34A, N-((R or S)-(3-chloro-4-fluorophenyl)(3-(trifluoromethyl)bicyclo [1.1.1]pentan-1-yl)methyl)-3-oxopiperazine-1-carboxamide] was 601 nM.

With `C[C@@H]1C(=O)NCCN1C(=O)NC(c1ccc(F)c(Cl)c1)C1CCC2(CC1)CC2(F)F` (single isomer, unassigned) [Example 19D], the IC50 was determined as 10 nM.

Turning to `[2H][C@@]1(CF)C(=O)NCCN1C(=O)N[C@H](c1ccc(F)c(Cl)c1F)[C@H]1C[C@H](C(F)(F)F)C1` [Example 61, (S)—N—((S)-(3-chloro-2,4-difluorophenyl)((trans)-3-(trifluoromethyl)cyclobutyl)methyl)-2-(fluoromethyl)-3-oxopiperazine-2-d-1-carboxamide], the 50% inhibitory concentration (IC50) was determined as 0.7 nM. `C[C@@H]1C(=O)NCCN1C(=O)NC(c1ccc(F)c(Cl)c1F)C12CC(C(F)(F)F)(C1)C2` (single isomer, unassigned) [Example 30B]: the IC50 worked out at 3.12 nM. For the compound `C[C@@H]1C(=O)NCCN1C(=O)NC(c1ccc(F)c(Cl)c1)C1CCC(F)(F)CC1` (single isomer, unassigned) [Example 14B, (2R)-N-((S or R)-(3-chloro-4-fluoro-phenyl)(4,4-difluoro-cyclohexyl)methyl)-2-methyl-3-oxo-piperazine-1-carboxamide], the 50% inhibitory concentration (IC50) stood at 359 nM.

`C[C@@H]1C(=O)NCCN1C(=O)NC(c1ccc(F)c(Cl)c1)C1CCN(CC(F)(F)F)CC1` (single isomer, unassigned) [Example 15A] displayed an IC50 of 28.3 nM. The value for `C[C@@H]1C(=O)NCCN1C(=O)NC(c1ccc(Cl)c(C(F)(F)F)n1)C1CC(C(F)(F)F)C1` (single isomer, unassigned) [Example 47C, (2R)—N—((S or R)-(5-chloro-6-(trifluoromethyl)pyridin-2-yl)(trans-3-(trifluoromethyl)cyclobutyl)methyl)-2-methyl-3-oxopiperazine-1-carboxamide] was 2.66 nM; that for `C[C@@H]1C(=O)NCCN1C(=O)NC(c1ccc(F)c(Cl)c1)C1CC(OCC(F)(F)F)C1` (single isomer, unassigned) [Example 44B, (2R)—N—((S or R)-(3-chloro-4-fluorophenyl)(cis-3-(2,2,2-trifluoroethoxy)cyclobutyl)methyl)-2-methyl-3-oxopiperazine-1-carboxamide] was 335 nM; that for `C=C1CC(C(NC(=O)N2CCNC(=O)[C@H]2C)c2ccc(F)c(Cl)c2F)C1` (single isomer, unassigned) [Example 25B, (2R)-N-((S or R)-(3-chloro-2,4-difluoro-phenyl)(3-methylene-scyclobutyl)methyl)-2-methyl-3-oxopiperazine-1-carboxamide] was 652 nM.

`C[C@@H]1C(=O)NCCN1C(=O)NC(c1ccc(C(F)(F)F)nc1)C1CC(C)(C)C1` (single isomer, unassigned) [Example 33B, (2R)-N-((S or R)-(3,3-dimethylcyclobutyl)(6-(trifluoromethyl)pyridin-3-yl)methyl)-2-methyl-3-oxopiperazine-1-carboxamide]: the IC50 stood at 3590 nM. The figure for `C[C@@H]1C(=O)NCCN1C(=O)NC(c1ccc(F)c(Cl)c1F)C1CC(C(F)(F)F)C1` (single isomer, unassigned) [Example 20C] is 9.02 nM. The value for `C[C@@H]1C(=O)NCCN1C(=O)NC(c1ccc(F)c(Cl)c1F)C12CC(C(F)(F)F)(C1)C2` (single isomer, unassigned) [Example 30A] was 281 nM.
